Measured values published in US5484934A, “Isothiazole derivatives, a process for production thereof and uses thereof” (Nihon Nohyaku Co., Ltd., priority 1992, dated 1996).

What was measured:
[1] = system: Coriolus versicolor; assay: Inhibition of hypha growth on malt extract agar, Coriolus versicolor; type: cell-based; details: Trametes versicolor, 28±2° C., 2 to 10 days, read-out: Controlling effect (growth inhibition rate) COV
[2] = system: Alternaria mali; assay: Inhibition of hypha growth on malt extract agar, Alternaria mali; details: read-out: Controlling effect (growth inhibition rate) ALM
Procedure: (§1) Each preparation to be tested was added to malt extract agar medium to adjust the concentration to 50 ppm, and the resulting mixture was dispensed into Petri dishes. As an inoculum, a prepared mycerial tuft of each test fungus was punched out together with agar by means of a 4-mm-diameter cork borer and inoculated on medium. The incubation temperature was adjusted to 28±2° .C (or 18±2° C. in the case of Selupula lacrymas).
(§2) The diameter of mycerial tuft was measured 2 to 10 days after the inoculation, and the inhibition rate of hypha growth (the following equation) was measured.
(§3) The controlling effect was evaluated according to the following criterion.

[3] = system: Fusarium oxysporum; assay: Inhibition of hypha growth on malt extract agar, Fusarium oxysporum; details: read-out: Controlling effect (growth inhibition rate) FUO
Procedure: as §1, §2, §3

[4] = system: Trichoderma viride; assay: Inhibition of hypha growth on malt extract agar, Trichoderma viride; details: read-out: Controlling effect (growth inhibition rate) TRV
[5] = system: Chaetomium globosum; assay: Inhibition of hypha growth on malt extract agar, Chaetomium globosum; details: read-out: Controlling effect (growth inhibition rate) CHG
Procedure: as §1, §2, §3

[6] = system: Cladosporium cladosporioides; assay: Inhibition of hypha growth on malt extract agar, Cladosporium cladosporioides; details: read-out: Controlling effect (growth inhibition rate) CLC
[7] = system: Serpula lacrymans; assay: Inhibition of hypha growth on malt extract agar, Serpula lacrymans; details: read-out: Controlling effect (growth inhibition rate) SEL
Procedure: as §1, §2

[8] = system: Rhizopus nigricans; assay: Inhibition of hypha growth on malt extract agar, Rhizopus nigricans; details: Rhizopus stolonifer, read-out: Controlling effect (growth inhibition rate) RHS
Procedure: as §1, §2

[9] = system: Aspergillus niger; assay: Inhibition of hypha growth on malt extract agar, Aspergillus niger; details: read-out: Controlling effect (growth inhibition rate) ASN
Procedure: as §1, §2, §3

[10] = system: Tyromyces palustris; assay: Inhibition of hypha growth on malt extract agar, Tyromyces palustris; details: read-out: Controlling effect (growth inhibition rate) TYP

## Cc1ccc(S(=O)(=O)c2snc(O)c2C#N)cc1 [Compound 2]
[1]
  inhibition at 50 ppm: 85 to 99%
[2]
  inhibition at 50 ppm: 55 to 84%
[3]
  inhibition at 50 ppm: 55 to 84%
[4]
  inhibition at 50 ppm: 85 to 99%
[5]
  inhibition at 50 ppm: 85 to 99%
[6]
  inhibition at 50 ppm: 55 to 84%
[7]
  inhibition at 50 ppm: 55 to 84%
[8]
  inhibition at 50 ppm: 85 to 99%
[9]
  inhibition at 50 ppm: 55 to 84%
[10]
  inhibition at 50 ppm: 55 to 84%

## CC=CCOc1nsc(S(C)(=O)=O)c1C#N [Compound 57]
[1]
  inhibition at 50 ppm: 100%
[2]
  inhibition at 50 ppm: 85 to 99%
[3]
  inhibition at 50 ppm: 100%
[4]
  inhibition at 50 ppm: 85 to 99%
[5]
  inhibition at 50 ppm: 85 to 99%
[6]
  inhibition at 50 ppm: 100%
[7]
  inhibition at 50 ppm: 100%
[8]
  inhibition at 50 ppm: 85 to 99%
[9]
  inhibition at 50 ppm: 85 to 99%
[10]
  inhibition at 50 ppm: 100%

## CCOC(=O)C[S+]([O-])c1snc(OC)c1C#N (centres unmarked) [Compound 18]
[1]
  inhibition at 50 ppm: 100%
[2]
  inhibition at 50 ppm: 85 to 99%
[3]
  inhibition at 50 ppm: 85 to 99%
[4]
  inhibition at 50 ppm: 100%
[5]
  inhibition at 50 ppm: 100%
[6]
  inhibition at 50 ppm: 100%
[7]
  inhibition at 50 ppm: 100%
[8]
  inhibition at 50 ppm: 100%
[9]
  inhibition at 50 ppm: 100%
[10]
  inhibition at 50 ppm: 100%

## CC(C)(C)c1ccc(S(=O)(=O)c2snc(OC(F)F)c2C#N)cc1 [Compound 117]
[1]
  inhibition at 50 ppm: 100%
[2]
  inhibition at 50 ppm: 85 to 99%
[3]
  inhibition at 50 ppm: 85 to 99%
[4]
  inhibition at 50 ppm: 100%
[5]
  inhibition at 50 ppm: 100%
[6]
  inhibition at 50 ppm: 85 to 99%
[7]
  inhibition at 50 ppm: 100%
[8]
  inhibition at 50 ppm: 100%
[9]
  inhibition at 50 ppm: 100%
[10]
  inhibition at 50 ppm: 85 to 99%

## C=CCOc1nsc(S(=O)(=O)c2ccc(C)cc2)c1C#N [Compound 119]
[1]
  inhibition at 50 ppm: 100%
[2]
  inhibition at 50 ppm: 85 to 99%
[3]
  inhibition at 50 ppm: 85 to 99%
[4]
  inhibition at 50 ppm: 100%
[5]
  inhibition at 50 ppm: 100%
[6]
  inhibition at 50 ppm: 100%
[7]
  inhibition at 50 ppm: 100%
[8]
  inhibition at 50 ppm: 100%
[9]
  inhibition at 50 ppm: 85 to 99%
[10]
  inhibition at 50 ppm: 85 to 99%

## CCS(=O)(=O)c1snc(OCC=CCl)c1C#N [Compound 59]
[1]
  inhibition at 50 ppm: 100%
[2]
  inhibition at 50 ppm: 100%
[3]
  inhibition at 50 ppm: 100%
[4]
  inhibition at 50 ppm: 100%
[5]
  inhibition at 50 ppm: 100%
[6]
  inhibition at 50 ppm: 100%
[7]
  inhibition at 50 ppm: 100%
[8]
  inhibition at 50 ppm: 100%
[9]
  inhibition at 50 ppm: 100%
[10]
  inhibition at 50 ppm: 100%

## COC(=O)COc1nsc(S(=O)(=O)c2ccccc2)c1C#N [Compound 109]
[1]
  inhibition at 50 ppm: 100%
[2]
  inhibition at 50 ppm: 100%
[3]
  inhibition at 50 ppm: 100%
[4]
  inhibition at 50 ppm: 100%
[5]
  inhibition at 50 ppm: 100%
[6]
  inhibition at 50 ppm: 100%
[7]
  inhibition at 50 ppm: 100%
[8]
  inhibition at 50 ppm: 100%
[9]
  inhibition at 50 ppm: 100%
[10]
  inhibition at 50 ppm: 100%

## N#Cc1c(O)nsc1S(=O)(=O)c1ccc(F)cc1 [Compound 11]
[1]
  inhibition at 50 ppm: 85 to 99%
[2]
  inhibition at 50 ppm: 55 to 84%
[3]
  inhibition at 50 ppm: 85 to 99%
[4]
  inhibition at 50 ppm: 85 to 99%
[5]
  inhibition at 50 ppm: 85 to 99%
[6]
  inhibition at 50 ppm: 55 to 84%
[7]
  inhibition at 50 ppm: 55 to 84%
[8]
  inhibition at 50 ppm: 85 to 99%
[9]
  inhibition at 50 ppm: 55 to 84%
[10]
  inhibition at 50 ppm: 85 to 99%

## CC(C)S(=O)(=O)c1snc(OC[Si](C)(C)C)c1C#N [Compound 77, 3-trimethylsilylmethoxy-4-cyano-5-isopropylsulfonylisothiazole]
[1]
  inhibition at 50 ppm: 100%
[2]
  inhibition at 50 ppm: 85 to 99%
[3]
  inhibition at 50 ppm: 85 to 99%
[4]
  inhibition at 50 ppm: 100%
[5]
  inhibition at 50 ppm: 100%
[6]
  inhibition at 50 ppm: 85 to 99%
[7]
  inhibition at 50 ppm: 100%
[8]
  inhibition at 50 ppm: 100%
[9]
  inhibition at 50 ppm: 85 to 99%
[10]
  inhibition at 50 ppm: 85 to 99%

## CC(C)(C)S(=O)(=O)c1snc(OC(F)F)c1C#N [Compound 29]
[1]
  inhibition at 50 ppm: 100%
[2]
  inhibition at 50 ppm: 85 to 99%
[3]
  inhibition at 50 ppm: 85 to 99%
[4]
  inhibition at 50 ppm: 100%
[5]
  inhibition at 50 ppm: 100%
[6]
  inhibition at 50 ppm: 85 to 99%
[7]
  inhibition at 50 ppm: 85 to 99%
[8]
  inhibition at 50 ppm: 100%
[9]
  inhibition at 50 ppm: 85 to 99%
[10]
  inhibition at 50 ppm: 100%

## COC(=O)CS(=O)(=O)c1snc(OC)c1C#N [Compound 81]
[1]
  inhibition at 50 ppm: 100%
[2]
  inhibition at 50 ppm: 100%
[3]
  inhibition at 50 ppm: 100%
[4]
  inhibition at 50 ppm: 100%
[5]
  inhibition at 50 ppm: 100%
[6]
  inhibition at 50 ppm: 100%
[7]
  inhibition at 50 ppm: 100%
[8]
  inhibition at 50 ppm: 100%
[9]
  inhibition at 50 ppm: 100%
[10]
  inhibition at 50 ppm: 100%
